Results: PMC12673148, “Structural basis of protease-activated receptor 2 activation and biased agonism” (Cell Discovery, 2025)
Read-outs that look alike come from different tables or passages of the source.

Columns and labels:
[1] = tested on: PAR2; settings: cited from earlier work; for PAR2 activation: synthetic peptides mimicking the TL
Source text: We used the N-terminal deletion construct of PAR2 (Δ1–48) as the backbone of the receptor to support downstream signaling, as it has lower intrinsic activity than the FL receptor does (Supplementary Fig. S1a).

[2] = tested on: PAR2; settings: cited from earlier work
[3] = tested on: PAR2; settings: cited from earlier work; remark: listed apart in the source
[4] = tested on: PAR2 (Gi signaling); assay: BRET0 assay, Gi sensor, ligand-induced; assay type: cell-based, human; settings: AD293 cells, full-length (FL) PAR2, Fig. S1b
Description: (§1) To measure the self-activation of WT and mutant PAR2 in response to G protein activity, a tricistronic activity sensor assay was performed as previously described. The G protein sensor plasmids were obtained from Addgene (https://addgene.org/Gunnar_Schulte/). To measure constitutive activity, AD293 cells in 6-well plates were cotransfected with 500 ng of WT or mutant PAR2 and 500 ng of the G protein sensor construct (pcDNA-Gα-Nluc/Gβ3/cpVenus-Gγ9 fusion combination) with Lipofectamine 2000 (Invitrogen). After being incubated for 24 h at 37 °C in a 5% CO2 atmosphere, the transfected cells were seeded into white 96-well plates and grown for another 24 h. […] After incubation for 3 min at 37 °C, the BRET ratio was measured twice consecutively to assess constitutive receptor activity using an EnVision multimode plate reader (PerkinElmer). […] The ratio of cpVenus/Nluc intensity was calculated for each well and normalized to that of the vehicle control.
(§2) For ligand-induced BRET0 measurements, transfected cells were plated in 96-well plates for 24 h, after which the cells were washed with HBSS and incubated with a 1:1000 dilution of furimazine stock solution. […] Plates were then subjected to BRET measurements with an EnVision plate reader (PerkinElmer) at 450/40-nm (Nluc-furimazine) and 535/30-nm to detect ligand-induced changes in the BRET signal. […]

[5] = tested on: PAR2 (G13 signaling); assay: BRET0 assay, tricistronic G13 sensor, ligand-induced; assay type: cell-based, human
Description: (§3) To measure the self-activation of WT and mutant PAR2 in response to G protein activity, a tricistronic activity sensor assay was performed as previously described. The G protein sensor plasmids were obtained from Addgene (https://addgene.org/Gunnar_Schulte/). To measure constitutive activity, AD293 cells in 6-well plates were cotransfected with 500 ng of WT or mutant PAR2 and 500 ng of the G protein sensor construct (pcDNA-Gα-Nluc/Gβ3/cpVenus-Gγ9 fusion combination) with Lipofectamine 2000 (Invitrogen). After being incubated for 24 h at 37 °C in a 5% CO2 atmosphere, the transfected cells were seeded into white 96-well plates and grown for another 24 h. The cells were subsequently washed with HBSS and incubated with a 1:1000 dilution of furimazine stock solution. After incubation for 3 min at 37 °C, the BRET ratio was measured twice consecutively to assess constitutive receptor activity using an EnVision multimode plate reader (PerkinElmer). Nluc emission intensity was selected using a 450/40-nm monochromator, and cpVenus^173 emission was selected using a 535/30-nm monochromator with an integration time of 0.3 s in both channels. The ratio of cpVenus/Nluc intensity was calculated for each well and normalized to that of the vehicle control.
(§4) For ligand-induced BRET0 measurements, transfected cells were plated in 96-well plates for 24 h, after which the cells were washed with HBSS and incubated with a 1:1000 dilution of furimazine stock solution. After being incubated for 3 min at 37 °C, the cells were treated with the addition of ligand solutions or vehicle control. Plates were then subjected to BRET measurements with an EnVision plate reader (PerkinElmer) at 450/40-nm (Nluc-furimazine) and 535/30-nm to detect ligand-induced changes in the BRET signal. Like in the BRET2 assay, the BRET signal was calculated by the ratio of the intensity at 535 nm (cpVenus) to that at 450 nm (Nluc), and the Δnet BRET ratio was calculated by subtracting the intensity of the vehicle control from that of each experimental well. […]

[6] = tested on: PAR2 (Gq signaling); assay: BRET0 assay, tricistronic Gq sensor, ligand-induced; assay type: cell-based, human
Description: as §3, §4

[7] = tested on: PAR2 (Gs signaling); assay: BRET0 assay, Gs sensor, ligand-induced; assay type: cell-based, human; settings: AD293 cells, full-length (FL) PAR2, Fig. S1b
Description: as §1, §2

[8] = tested on: PAR2 (Gs signaling); settings: full-length (FL) PAR2; cited from earlier work
Source text: To mimic trypsin cleavage of PAR2 between R36 and S37, we removed residues 2–36 of PAR2 and allowed native methionine aminopeptidase (MAP) to remove the N-terminal methionine residue via a process termed N-terminal methionine processing that occurs naturally across prokaryotes and eukaryotes. We employed a bioluminescence resonance energy transfer (BRET) assay consisting of G protein-based tricistronic activity sensors (BRET0)[17] to quantitatively assess the constitutive activity of GPCR. This approach allowed us to measure the intrinsic activity of the PAR2 constructs. Compared with the ...

[9] = tested on: PAR2 (G13 signaling); assay: NanoBiT G protein dissociation assay, G13; assay type: cell-based, human; settings: mean ± SD
Description: (§5) Ligand-induced G protein activation was measured by a NanoBiT G protein dissociation assay, as described previously[11],[41]. Briefly, AD293 cells cultured in 6-well plates were transfected with plasmids encoding a large fragment (LgBiT)-containing Gαq or Gα13 subunit (100 ng), a small fragment (SmBiT)-fused Gβ1 subunit (500 ng), and the untagged Gγ2 subunit with a C68S mutation (500 ng) in combination with the WT PAR2 construct (200 ng). After being incubated for 1 day, the transfected cells were collected, pelleted by centrifugation, and suspended in HBSS containing 0.01% bovine serum albumin (Solarbio) and 5 mM HEPES (pH 7.4; assay buffer). The cell suspension was dispensed in white 96-well plates at a volume of 80 μL per well and mixed with 20 μL of 50 μM coelenterazine native (BIOSTNTH). After incubation for 2 h at RT, the baseline luminescence was measured, after which 20 μL of test compound (6×) was added, and subsequent luminescence measurements were performed to detect ligand-induced changes. Luminescence intensity measured from 3 min to 5 min after compound addition was normalized to the initial intensity, and the net luminescence was calculated by subtracting the luminescence ratio of the vehicle control from the normalized luminescence per well. The G protein dissociation signals were fitted to a four-parameter sigmoidal concentration–response curve (GraphPad Prism 8).

[10] = tested on: PAR2 (Gq signaling); assay: NanoBiT G protein dissociation assay, Gq; assay type: cell-based, human; settings: mean ± SD
Description: as §5

[11] = tested on: PAR2 (Gq signaling); assay: BRET2 Gq dissociation assay; assay type: cell-based, human
Description: (§6) In accordance with previous methods, AD293 cells were plated in 6-well plates at 700,000–800,000 cells per well. After 1 day of growth at 37 °C with 5% CO2, the cells in each well were transfected with 100 ng of pcDNA3-PAR2 (Δ1–48) WT or mutants, 100 ng of Gα-RLuc8, 100 ng of Gβ, and 100 ng of Gγ-green fluorescent protein (Gγ-GFP) plasmids with Lipofectamine 2000 (Thermo Fisher Scientific). After being incubated for 1 day, the cells were collected, pelleted by centrifugation, and suspended in DMEM supplemented with 5% (v/v) FBS. The cell suspensions were dispensed in white 96-well plates at a density of 25,000–50,000 cells per well. One day after being plated, the growth medium was carefully aspirated and replaced immediately with 60 μL of 1× Hank’s balanced salt solution (HBSS) containing 20 mM HEPES (pH 7.4; assay buffer), followed by the addition of 10 μL of freshly prepared 50 μM coelenterazine 400a (Yeasen). After a 5-min equilibration period, the cells were treated with 30 μL of drug for an additional 5 min. The plates were then measured in an EnVision plate reader (PerkinElmer) with 395 nm (RLuc8-coelenterazine 400a) and 510 nm (GFP2) emission filters with integration times of 1 s. The BRET signal was calculated by the ratio of the luminescence intensity at 510 nm (GFP) to that at 395 nm (RLuc), and the Δnet BRET ratio was calculated by subtracting the luminescence intensity of the vehicle control from that of each experimental well (510 nm/395 nm). The data were subsequently plotted as a four-parameter sigmoidal concentration–response curve in GraphPad Prism 8.

[12] = tested on: PAR2 (G13 signaling); assay: BRET2 G13 dissociation assay; assay type: cell-based, human
Description: as §6

[13] = AD293 cells, full-length (FL) PAR2, Fig. S1b
[14] = PAR2 D62A, AD293 cells, n = 3, Fig. S5a
[15] = PAR2 (Δ1–48) D62A, AD293 cells, mean ± SD, n = 3, Fig. 5b
[16] = BRET0, AD293 cells, mean ± SD, n = 3, Fig. S5b
[17] = PAR2 (Δ1–48) WT, AD293 cells, mean ± SD, n = 3, Fig. 5g
[18] = summary statement, assay not named (BRET2, BRET0, NanoBiT used)

Molecule: 2-furoyl-LIGRL-NH2
- PAR2 activation [1]: activating the receptor independently of protease cleavage

Molecule: 2f-LAAAAI-NH2 [DF253]
- PAR2-mediated Ca2+ release [2]: trigger PAR2-mediated Ca^2+ release
- ERK1/2 phosphorylation [3]: without inducing ERK1/2 phosphorylation

Molecule: C/C(=N\NC(=O)[C@H]1C(=O)NC[C@@H]1c1ccccc1)c1cccc(Br)c1 [AC264613]
- PAR2 agonism ([1]; reference not given): potent PAR2-selective agonist

Molecule: CC[C@H](C)[C@H](NC(=O)[C@H](CC1CCCCC1)NC(=O)c1ccno1)C(=O)N1CCC2(C=Cc3ccccc32)CC1 [GB88]
- PAR2 agonism [1]: partial PAR2 agonist

Molecule: Isox-Cha-Chg-Chg-A-R-NH2 [AY254]
- ERK1/2 phosphorylation [3]: ERK-biased agonist

Molecule: SLAGRL-NH2
- efficacy [1]: significantly lower efficacy

Molecule: SLIGKV [SLIGKV (TL), tethered ligand peptide of human PAR2]
- Gi signaling activation [4]: activated
- G13 signaling activation [5, 13]: activated
- Gq signaling activation [6, 13]: activated
- Gs signaling activation [7]: had no effect on Gs signaling
- Gs signaling induction [8]: incapable of inducing Gs signaling

Molecule: SLIGKV-NH2 [human tethered-ligand synthetic peptide]
- PAR2 activation [1]: activating the receptor independently of protease cleavage

Molecule: SLIGRL-NH2 [mouse tethered-ligand peptide used as synthetic WT peptide]
- inducing activity versus human ligand SLIGKV-NH2 [1]: much higher inducing activity than the human ligand
- PAR2 activation [1]: activating the receptor independently of protease cleavage
- G13 activity, D62A mutant ([5]; PAR2 D62A, AD293 cells, mean ± SD, n = 3, Fig. S5a): minimal G13 activity
- Gq versus G13 bias, D62A mutant ([6]; PAR2 D62A, AD293 cells, BRET0, mean ± SD, n = 3, Fig. S5a): clearly biased toward Gq signaling
- G13 activity, D62A mutant [9, 14]: minimal G13 activity
- Gq versus G13 bias, D62A mutant [10, 14]: clearly biased toward Gq signaling
- Gq activity, D62A mutant [11, 15]: only had a minor effect on Gq activity
- G13 activity, D62A mutant [12, 15]: almost completely abolished G13 activity
- G13 receptor activity, D228A mutant ([12]; PAR2 (Δ1–48) D228A, AD293 cells, mean ± SD, n = 3, Fig. 2c): strongly decreased receptor activity
- G13 receptor activity, H227A mutant ([12]; PAR2 (Δ1–48) H227A, AD293 cells, mean ± SD, n = 3, Fig. S3h): decreased receptor activity
- G13 receptor activity, H310A mutant ([12]; PAR2 (Δ1–48) H310A, AD293 cells, mean ± SD, n = 3, Fig. 2c): strongly decreased receptor activity
- G13 receptor activity, L230A mutant ([12]; PAR2 (Δ1–48) L230A, AD293 cells, mean ± SD, n = 3, Fig. 2c): strongly decreased receptor activity
- G13 receptor activity, P231A mutant ([12]; PAR2 (Δ1–48) P231A, AD293 cells, mean ± SD, n = 3, Fig. 2c): strongly decreased receptor activity
- G13 receptor activity, V229A mutant ([12]; PAR2 (Δ1–48) V229A, AD293 cells, mean ± SD, n = 3, Fig. S3h): decreased receptor activity
- G13 receptor activity, Y311A mutant ([12]; PAR2 (Δ1–48) Y311A, AD293 cells, mean ± SD, n = 3, Fig. 2c): strongly decreased receptor activity
- G13 receptor activity, Y323A mutant ([12]; PAR2 (Δ1–48) Y323A, AD293 cells, mean ± SD, n = 3, Fig. 2c): strongly decreased receptor activity

Molecule: SLVGRL-NH2 [synthetic peptide with valine at third TL residue; Gq-biased ligand]
- G13 activity [5, 16]: minimal G13 activity
- Gq versus G13 bias [6, 16]: strong bias toward Gq signaling
- G13 activity ([9]; NanoBiT, WT PAR2, AD293 cells, n = 3, Fig. S5b): minimal G13 activity
- Gq versus G13 bias ([10]; WT PAR2, AD293 cells, n = 3, Fig. S5b): strong bias toward Gq signaling
- Gq activity relative to WT peptide [11, 17]: maintained most of the Gq activity of the WT peptide
- Gq signaling (discussion summary) [11, 18]: predominantly activates Gq signaling
- G13 activity relative to WT peptide [12, 17]: lost most of the G13 activity
- G13 signaling (discussion summary) [12, 18]: minimal effect on G13 signaling

B1: NE: neutrophil elastase, protease cleaving PAR2 between S67↓V68 (protein, UniProt P08246 30-267, looked up)
Neutrophil elastase: IVGGRRARPHAWPFMVSLQLRGGHFCGATLIAPNFVMSAAHCVANVNVRAVRVVLGAHNLSRREPTRQVFAVQRIFENGYDPVNLLNDIVILQLNGSATINANVQVAQLPAQGRRLGNGVQCLAMGWGLLGRNRGIASVLQELNVTVVTSLCRRSNVCTLVRGRQAGVCFGDSGSPLVCNGLIHGIASFVRGGCASGLYPDAFAPVAQFVNWIDSIIQRSEDNPCPHPRDPDPASRTH
- Ca2+ release on PAR2 cleavage ([2]; cleavage at E56↓T57 (CS) or S67↓V68 (NE)): not Ca^2+ release
- ERK1/2 activation on PAR2 cleavage ([3]; cleavage at S67↓V68): activates ERK1/2
